Test results published in PMC11375437, “Selective labelling of GBA2 in cells with fluorescent β-D-arabinofuranosyl cyclitol aziridines” (Chemical Science, 2024).
Where “and” joins values, the source holds several entries; their conditions need not be identical. Identical values can stand only once. Like-named read-outs stand apart in the source and are kept apart here.

Biological target: T1, rhGBA1 (imiglucerase) (Homo sapiens, UniProt P04062, R534H)
T1 construct: purchased Sanofi Genzyme (gift) Cerezyme®
T1 sequence (P04062 40-536 R534H): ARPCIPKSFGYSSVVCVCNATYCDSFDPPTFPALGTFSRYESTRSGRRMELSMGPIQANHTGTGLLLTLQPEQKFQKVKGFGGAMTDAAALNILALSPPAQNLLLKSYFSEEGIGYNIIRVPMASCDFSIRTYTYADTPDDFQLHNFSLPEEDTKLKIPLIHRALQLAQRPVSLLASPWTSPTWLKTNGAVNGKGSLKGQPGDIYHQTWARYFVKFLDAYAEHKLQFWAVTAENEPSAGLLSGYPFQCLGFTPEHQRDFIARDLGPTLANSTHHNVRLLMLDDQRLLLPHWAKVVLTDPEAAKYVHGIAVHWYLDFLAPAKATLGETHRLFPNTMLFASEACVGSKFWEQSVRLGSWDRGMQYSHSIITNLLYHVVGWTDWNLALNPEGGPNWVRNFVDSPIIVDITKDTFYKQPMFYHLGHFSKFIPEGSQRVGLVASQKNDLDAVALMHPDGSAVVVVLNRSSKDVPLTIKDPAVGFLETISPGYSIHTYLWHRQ
Assay: 4MU fluorogenic substrate assay for apparent IC50, rhGBA1
Format: biochemical
Details: 30 min pre-incubation, 4MU-β-D-Glc
Text: To identify an ABP that selectively labels human GBA2 over GBA1 and GBA3, a library of cyclophellitol-based ABPs with varying configurations (ESI Fig. S1 ^†) was screened for their selectivity towards human retaining β-glucosidases. For this purpose, we initially assessed the inhibition properties of the compounds using recombinant human GBA1 (rhGBA1, imiglucerase), lysates of cells overexpressing GBA2 or GBA3 (both in combination with knockout of the other retaining β-glucosidases). In a preliminary screen, enzymes were pre-incubated for 30 min with the tested compounds, followed by the addition of the fluorogenic substrate, 4MU-β-D-Glc, and subsequent quantification of released fluorescent 4MU after 30 minutes. This screening brought our attention to a new set of β-D-Araf cyclitol aziridines as potential GBA2 inhibitors. […] On the other hand, the biotin-tagged β-D-Araf compound 6 is a poor inhibitor of all three glucosidases (apparent IC50 > 8 μM). Arabinofuranosyl cyclitol 12–20 with various configurations (α-L-Araf and β-L-Araf) were also evaluated (ESI Fig. S1 ^†).
Recombinant human GBA1 (rhGBA1, Imiglucerase) was kindly provided by Sanofi Genzyme (Cambridge, MA, USA). 4-Methylumbelliferyl-β-D-glucopyranoside substrates were purchase from Glycosynth (Warrington Cheshire, UK). Protein concentration was measured using the Pierce BCA assay kit (Thermo Fisher Scientific, Waltham, MA, USA). Harvested cells (cell pellets), cell lysates and tissue homogenates not used directly were stored at -80 °C. […]
2.5 4MU fluorogenic substrate assay for apparent IC50 determination
4MU fluorogenic substrate assays (using recombination human rhGBA1 or lysates of HEK293T cells) were conducted in 96-well plates at 37 °C. Samples were diluted with McIlvaine buffer (150 mM citric acid-Na2HPO4) to a final volume of 25 μL, at the appropriate pH for each enzyme. Assays were performed by incubating the samples with 100 μL 4-methylumbelliferyl-β-D-glucopyranoside substrate diluted in McIlvaine buffer for a period of 30 min. Enzyme activities and apparent IC50 values were determined by subtraction of the background (measured for incubations without enzyme) as previously described.4 The substrate mixtures used for each enzyme were as follows:
GBA1: 3.75 mM 4-MU-β-D-glucopyranoside in McIlvaine buffer (150 mM, pH 5.2, supplemented with 0.2% (w/v) sodium taurocholate, 0.1% (v/v) Triton X-100, 0.1% (w/v) bovine serum albumin (BSA)); GBA2: 3.75 mM 4 MU-β-D-glucopyranoside in McIlvaine buffer (150 mM, pH 5.8); GBA3: 3.75 mM 4-MU-β-D-glucopyranoside in McIlvaine buffer (150 mM, pH 6.0). To determine apparent IC50: For GBA1, 3.16 ng (53 fmol) of rhGBA1 (recombinant human GBA1, Imiglucerase) was prepared in 12.5 μL McIlvaine buffer (150 mM, pH 5.2, supplemented with 0.1% (v/v) Triton X-100, 0.2% (w/v) sodium taurocholate, and 0.1% (w/v) bovine serum albumin (BSA)). The enzyme was incubated with 12.5 μL […]
of inhibitors diluted in McIlvaine buffer (150 mM, pH 5.2) at 37 °C for 30 min or 3 h. For GBA2, lysates of GBA1/GBA2 KO HEK293T cells with GBA2 overexpression were prepared in 12.5 μL McIlvaine buffer (150 mM, pH 5.8), and incubated with 12.5 μL of inhibitors diluted in McIlvaine buffer (150 mM, pH 5.8) at 37 °C for 30 min or 3 h. For GBA3, lysates of GBA1/GBA2 KO HEK293T cells with GBA3 overexpression were prepared in 12.5 μL McIlvaine buffer (150 mM, pH 6.0), and incubated with 12.5 μL of inhibitors diluted in McIlvaine buffer (150 mM, pH 6.0) at 37 °C for 30 min or 3 h. Subsequently, the samples were incubated with 100 μL 4-methylumbelliferyl-β-D-glucopyranoside substrates dissolved in McIlvaine buffer described above for a period of 30 min. After stopping the enzyme reaction with 200 μL 1 M NaOH-glycine (pH 10.3), 4-methylumbelliferone fluorescence was measured with a fluorimeter LS55 (Perkin Elmer, Waltham, MA, USA) with λEX 366 nm and λEM 445 nm. The IC50 value was calculated using Graphpad Prism 9.0 with the Nonlinear regression (curve fit) - […]

[1] = imiglucerase (Cerezyme), pH 5.2, n = 3 for β-D-Araf, n = 1 for α-L-Araf and β-L-Araf, read-out: Apparent IC50 rhGBA1

Row | SMILES | IC50 [1] | IC50 (read-out: Apparent IC50 GBA1) [µM]
1 | [N-]=[N+]=NCCCCCCCCN1[C@@H]2[C@H](CO)[C@@H](O)[C@H](O)[C@@H]21 (stereo partly drawn) [Compound 2, β-D-arabinofuranosyl cyclitol aziridine-azidooctyl] | 2.73 µM | 
2 | COc1ccc(C2=[N+]3C(=C(CCCCc4cn(CCCCCCCCN5[C@@H]6[C@H](CO)[C@@H](O)[C@H](O)[C@@H]65)nn4)c4ccc(-c5ccc(OC)cc5)n4[B-]3(F)F)C=C2)cc1 (some centres unmarked) [ABP 4] | 1.78 ± 0.071 µM | 
3 | CC1=CC(C)=[N+]2C1=C(CCCCc1cn(CCCCCCCCN3[C@@H]4[C@H](CO)[C@@H](O)[C@H](O)[C@@H]43)nn1)c1c(C)cc(C)n1[B-]2(F)F (some centres unmarked) [ABP 3] | 4.29 ± 0.157 µM | 
4 | OC[C@@H]1[C@@H](O)[C@H](O)[C@@H]2N[C@H]12 [Compound 1, β-D-Arabinofuranosyl cyclitol aziridine] | > 50 µM | > 50
5 | O=C(CCCC[C@@H]1SC[C@@H]2NC(=O)N[C@@H]21)NCc1cn(CCCCCCCCN2[C@@H]3[C@H](CO)[C@@H](O)[C@H](O)[C@@H]32)nn1 (some centres unmarked) [ABP 6] | 10.7 ± 0.786 µM | > 8
6 | CN1/C(=C/C=C/C=C/C2=[N+](CCCCCC(=O)NCc3cn(CCCCCCCCN4[C@@H]5[C@H](CO)[C@@H](O)[C@H](O)[C@@H]54)nn3)c3ccccc3C2(C)C)C(C)(C)c2ccccc21 (some centres unmarked) [ABP 5] | 0.25 to 0.3 µM and 0.295 µM | 
